Measurements published in PubChem BioAssay (NCI).
“And” between values parts separate entries of the source, which are not always exact repeats. Equal entries are not always repeated.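 Five compound concentrations were applied to cells in 96-well plates for 48 hours; endpoints were derived by simple linear interpolation of the resulting dose-response curve. The concentration for 50% growth inhibition is given as GI50. TGI: total growth inhibition.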

Assays:
Test in all cases: NCI anticancer screen, dose series, 48 h
HCT-15 colon = tested on: HCT-15 colon
M14 melanoma = tested on: M14 melanoma
MALME-3M melanoma = tested on: MALME-3M melanoma
MOLT-4 leukemia = tested on: MOLT-4 leukemia
NCI-H226 lung = tested on: NCI-H226 lung
RXF 393 renal = tested on: RXF 393 renal
SF-539 CNS = tested on: SF-539 CNS
U251 CNS = tested on: U251 CNS
KM20L2 colon = tested on: KM20L2 colon
DLD-1 colon = tested on: DLD-1 colon

| Compound | GI50 (HCT-15 colon) | TGI (HCT-15 colon) | GI50 (M14 melanoma) | TGI (M14 melanoma) | GI50 (MALME-3M melanoma) | TGI (MALME-3M melanoma) | GI50 (MOLT-4 leukemia) | TGI (MOLT-4 leukemia) | GI50 (NCI-H226 lung) | TGI (NCI-H226 lung) | GI50 (RXF 393 renal) | TGI (RXF 393 renal) | GI50 (SF-539 CNS) | TGI (SF-539 CNS) | GI50 (U251 CNS) | TGI (U251 CNS) | TGI (KM20L2 colon) [µM] | TGI (DLD-1 colon) [µM] |
| --- | --- | --- | --- | --- | --- | --- | --- | --- | --- | --- | --- | --- | --- | --- | --- | --- | --- | --- |
| COC(=O)[C@H]1C(=O)[C@@]2(C)[C@H]([C@H](OC(=O)c3ccccc3)[C@]3(O)C[C@H](OC(=O)[C@H](O)[C@@H](NC(=O)c4ccc(F)cc4)c4ccccc4)C(C)=C1C3(C)C)[C@]1(OC(C)=O)CO[C@@H]1C[C@@H]2O | 553 nM | > 25 µM | 0.0114 µM | 0.105 µM | 0.0187 µM | > 25 µM | 10.1 nM | 3.42 µM | 0.612 µM | > 25 µM | 0.0152 µM | > 25 µM | 0.00749 µM | 0.0753 µM | 0.0103 µM | > 25 µM | – | – |
| CC(=O)[O-].CC(=O)[O-].O=C(N/N=C/c1cc(Cl)cc(Cl)c1O)c1ccncc1.[Ni+2] | – | > 100 µM | – | > 100 µM | – | > 100 µM | – | > 100 µM | – | > 100 µM | – | > 100 µM | – | > 100 µM | – | > 100 µM | > 100 | – |
| COc1ccccc1-c1cc(/C=C2\C(=O)Nc3ncc(Br)cc32)cc(Br)c1O | 9600 nM | > 25 µM | 12.9 µM | > 25 µM | 16.4 µM | > 25 µM | 9310 nM | > 25 µM | 12.5 µM | > 25 µM | 6.77 µM | > 25 µM | > 19.3 µM | > 25 µM | 12.7 µM | > 25 µM | – | – |
| c1ccc(N=c2snc3scc(-c4ccccc4)n23)cc1 | – | > 100 µM | – | 96.2 µM | – | 98.6 µM | – | 79.6 µM | – | > 100 µM | – | > 100 µM | – | > 100 µM | – | 68.3 µM | – | > 100 |
| C[C@@H](N)C1CCC(C(=O)Nc2ccncc2)CC1 (stereo partly drawn) | > 100000 nM | > 100 µM | > 100 µM | > 100 µM | > 100 µM | > 100 µM | > 100000 nM | > 100 µM | > 100 µM | > 100 µM | > 100 µM | > 100 µM | > 100 µM | > 100 µM | > 100 µM | > 100 µM | – | – |
| COC(=O)[C@H]1[C@@H](O)[C@@]2(O)c3c(OC)cc(O[C@@H]4O[C@@H]([C@H](O)CO)CO[C@H]4OC)cc3O[C@@]2(c2ccc(OC)cc2)[C@@H]1c1ccccc1 | 233 nM | > 1 µM | 0.00818 µM | 0.0271 µM | 0.00321 µM | 0.0259 µM | 3.1 nM | – | 0.00813 µM | 0.078 µM | 0.00944 µM | 0.0436 µM | 0.00187 µM | 0.00686 µM | 0.00352 µM | 0.0202 µM | – | – |
| COc1cc2c(F)nccc2cc1C(=O)N[C@@H](c1ccc(F)c(Cl)c1)[C@@H]1C[C@@H](O)CN1 | 838 nM | 16.4 µM | 10.5 µM | 23.2 µM | 0.716 µM | 15.4 µM | 188 nM | > 41.6 µM | 5.99 µM | 24.4 µM | 0.0362 µM | 0.268 µM | 0.0677 µM | 11.1 µM | 1.49 µM | 17.8 µM | – | – |
| O=C(c1ccc(OCCN2CCCCC2)cc1)c1c(-c2ccc(O)cc2)sc2cc(O)ccc12 | 5510 nM and 2670 nM | 20.8 µM and 13.2 µM | 3.23 µM and 10.3 µM | 11.1 µM and 32.3 µM | 6.05 µM and 13.5 µM | 23.5 µM and 28.9 µM | 2800 nM and 4860 nM | 10.8 µM and 23.2 µM | 15 µM and 17 µM | 29.6 µM and 34.6 µM | 5.2 µM and 4.32 µM | 19.1 µM and 15.9 µM | 12.1 µM and 11 µM | 27.2 µM and 25.7 µM | 5.53 µM and 7.84 µM | 19.6 µM and 21.1 µM | – | – |
